Data on five molecules can be found in patent publication US11896713B2, “Strategies to enhance lung cancer treatment” (Rutgers, The State University of New Jersey, priority 2020, dated 2024).

Entries after “also recorded” stand apart in the source; their conditions may differ. Residues, ends and D or L forms follow the SMILES beside them.

The test system of data set [1] is LHRH-positive lung cancer cells. Nature of the data set: Cytotoxicity (MTT) and competitive inhibition by LHRH peptide. In kind it is cell-based. The procedure:
(§1) Cytotoxicity, Apoptosis Induction and Immune Response. The toxicities of the developed formulations were compared with a commercially used EGFR inhibitor gefitinib in three types of human lung cancer cells with different resistance to the drug. […] Cytotoxicity and apoptosis induction were analyzed by a modified 3-(4,5-Dimethylthiazol-2-yl)-2,5-diphenyltetrazolium bromide (MTT) assay and cell death detection ELISA Plus kit (Roche, Nutley, NJ), respectively. The cells were seeded on a 96 well plate at 10,000 cells per well with 100 μl of growth media in each well and placed in the incubator for 24 hours. After 24 hours, the media was removed and the cells were treated with varying concentrations of above indicated substances. The concentrations of tested substances were prepared using a serial dilution (1:2) to make 12 different working solutions for the cytotoxicity measurement.

For the next data set, the system named is human lung cancer cells. The experiment in a line: Orthotopic lung cancer model treated with liposomal cisplatin or carboplatin. Format: in vivo, mice. The settings on record: intravenous, 2.5 mg/kg.
The test system of another data set is A549 cells. The experiment in a line: Cytotoxicity (MTT). In kind it is cell-based, human. The settings on record: 72 h, 1 μM.
The test system of a further data set is NCI-H1781 cells. The experiment in a line: Cytotoxicity (MTT). In kind it is cell-based, human. To be noted: 72 h, 1 μM. On the procedure:
as §1

The test system of another data set is NCI-H3255 cells. The experiment in a line: Cytotoxicity (MTT). In kind it is cell-based, human. To be noted: 72 h, 1 μM. On the procedure: as §1
In data set [2] the test system is NCI-H1781, A549 and NCI-H3255 NSCLC cell lines. Nature of the data set: Apoptosis induction (cell death detection ELISA). In kind it is cell-based, human. To be noted: 72 h; 1 μM gefitinib or 0.3 ng/ml nanocarrier. The procedure:
as §1
The control cells were incubated with fresh media. Previously validated in our laboratory MTT and apoptosis induction measurement protocols were used.

The subject of the next data set is A549 lung cancer cells. The experiment in a line: Orthotopic lung cancer model, tumor volume. In kind it is in vivo, mice. The settings on record: intravenous, TAX 2.5 mg/kg. On the procedure:
In Vivo Lung Cancer Model, Imaging and Treatment. All animal experiments were carried out according to the protocol approved by Institutional Animal Care and Use Committee (IACUC). Nude mice were purchased from the approved commercial vendor (Taconic, Germantown, NY). All aspects of the program for procurement, conditioning/quarantine, housing management, veterinary care and disposal of carcasses followed the guidelines set forth in the NIH Guide for the Care and Use of Laboratory Animals. Animals were housed in the […]—accredited animal facility with free access to food and water. Veterinary care was supplied by Rutgers University Lab Animal Services. Orthotopic lung cancer mouse model was created by intratracheal instillation of A549 lung cancer cells as previously described. The progression of tumor growth was monitored using bioluminescent and magnetic resonance (MRI) imaging. Luciferase transfected cancer cells were visualized in live anesthetized animals using in-vivo bioluminescence IVIS system (Xenogen, Alameda, CA). Luciferin (150 mg/kg) was intraperitoneally administered 10-15 minutes before imaging. […] Images (repetition time 2607 ms, echo time 44 ms) were recorded in Fast Spin Echo sequence. […] Magnetic resonance signal and tumor volume were calculated using VivoQuant 1.21 software (Invicro, Boston, MA). […]

Procedure for human lung cancer cells: Orthotopic lung cancer mouse model was created by intratracheal instillation of human lung cancer cells. The progression of tumor growth was monitored using bioluminescent and magnetic resonance (MRI) imaging. Luciferase transfected cancer cells were visualized in live anesthetized animals using in-vivo bioluminescence IVIS system (Xenogen, Alameda, CA). Luciferin (150 mg/kg) was intraperitoneally administered 10-15 minutes before imaging. All imaging procedures were performed at special imaging facilities of the Rutgers University Molecular Imaging Center as previously described. Mice were anesthetized with isoflurane (4% for induction of anesthesia and 1-2% for maintenance) using XGI-8 Gas Anesthesia System (Xenogen, Alameda, CA) for all imaging procedures. MRI was performed using a 1 T M2™ whole body scanner (Aspect Imaging, Shoham, Israel). Images (repetition time 2607 ms, echo time 44 ms) were recorded in Fast Spin Echo sequence. At a spatial resolution of 312 μm, the tumors were coronal imaged in a single section through the mouse body using an image matrix of 256×256, a field of view of 80 mm^2, and 4 excitation. Magnetic resonance signal and tumor volume were calculated using VivoQuant 1.21 software (Invicro, Boston, MA).
In order to deliver liposome-based system by inhalation, a Collison nebulizer (BGI, Inc., Waltham, MA) was connected to four-port nose-only exposure chambers (the chamber was made by CH Technologies, Westwood, NJ according to our design). […] The installation was designed and regime of inhalation was selected to keep the inhalation dosage controllable and uniform from animal to animal with a minimal damage to the nanoparticles. The solution of NLC was aerosolized at a flow rate of 2 L/min and then diluted by an additional 2 L/min of air. […] It was also shown that the aerosol distribution between the four ports of the chamber was homogenous. The dose of Cis and Carb in all drug-containing formulations was 2.5 mg/kg for the single administration.

Take `CCNC(=O)[C@@H]1CCCN1C(=O)[C@H](CCCNC(=N)N)NC(=O)[C@H](CC(C)C)NC(=O)[C@@H](CCCCNC(=O)[C@H](N)CS)NC(=O)[C@H](Cc1ccc(O)cc1)NC(=O)[C@H](CO)NC(=O)[C@H](Cc1c[nH]c2ccccc12)NC(=O)[C@H](Cc1c[nH]cn1)NC(=O)[C@@H](N)CCC(N)=O` [LHRH peptide, Gln-His-Trp-Ser-Tyr-DLys(D-Cys)-Leu-Arg-Pro] (HELM PEPTIDE1{Q.H.W.S.Y.[dK].L.R.P.[CCN[*:1]]}|PEPTIDE2{[dC]}$PEPTIDE1,PEPTIDE2,6:R3-1:R2$$$V2.0): in data set [1], the cytotoxicity entry is “did not demonstrate any toxicity”. For the same molecule, in data set [1] (cells incubated with different concentrations of LHRH peptide), the “effect of LHRH receptor ligand on cytotoxicity of LHRH-NLC-TAX” value was “limited cytotoxicity of LHRH-NLC-TAX in a concentration-dependent manner”.
For `N.N.O=C([O-])C1(C(=O)[O-])CCC1.[Pt+2]` [Carb, carboplatin], the antitumor effect entry with human lung cancer cells was “slightly slowed the tumor progression; also recorded: somewhat higher antitumor activity”.
For the molecule `N.N.[Cl][Pt][Cl]` [Cis, cisplatin], the antitumor effect entry in the data set with human lung cancer cells is given as “slightly slowed the tumor progression”.
Turning to `COc1cc2ncnc(Nc3ccc(F)c(Cl)c3)c2cc1OCCCN1CCOCC1` [gefitinib], the sensitivity to gefitinib result is given as “moderate sensitivity to gefitinib” with A549 cells, “most resistant to gefitinib” in the data set on NCI-H1781 cells and “the most sensitive to gefitinib” with NCI-H3255 cells. In addition, in data set [2], the apoptosis induction result is on record as “correlated with its cytotoxicity”.
Turning to `CC(=O)O[C@H]1C(=O)[C@@]2(C)[C@H]([C@H](OC(=O)c3ccccc3)[C@]3(O)C[C@H](OC(=O)[C@H](O)[C@@H](NC(=O)c4ccccc4)c4ccccc4)C(C)=C1C3(C)C)[C@]1(OC(C)=O)CO[C@@H]1C[C@@H]2O` [TAX, Paclitaxel], in the data set with A549 lung cancer cells, the “decrease of lung tumor volume at the end of the experiment” value was found to be 1.1 times.
